From patent publication US20250223306A1, “TEAD INHIBITORS AND METHODS OF USE” (Sporos BioDiscovery, Inc., priority 2022, published 2025)
Each block holds one compound with its values, some of them ahead of it.

Assays:
NCI-H226 cells = assay: Proliferation and cell viability, CellTiter-Glo 2.0 (CTG) assay; type: cell-based; conditions: for IC50: H226-responder cell line, 144 hrs; for EC50: NCI-H226, H226-responder cell line (Table 5)
Method: Cell proliferation of a TEAD dependent NF2-null mesothelioma cell line, NCI-H226, and a TEAD-non-dependent mesothelioma cell line, NCI-H28 was assayed using two different protocols: • a) CellTiter-Glo 2.0 (Promega #G9243). The effect of the TEAD inhibitors disclosed herein on cell proliferation was determined in TEAD1-genetically dependent cell line NCI-H226 (responder cell line) and TEAD-independent cell lines (NCI-H23, HEK293T), as non-responder, negative control. Cells were seeded in 96-well plates (Thermo Scientific #167008) in growth media (RPMI-1640, Gibco #61870-010) for NCI-H226 and NCI-H23 or DMEM (Gibco #31966-021, HEK293T) with 10% Heat Inactivated Fetal Bovine Serum (Gibco 10500-064) at 800 (NCI-H226 and HEK-293T) or 2000 (NCI-H23) cells per well at 37° C., 5% CO2, humidified incubator; 24 hours later, fresh growth media containing test compound or DMSO vehicle was added and incubated with the cells for 144 hrs. TEAD inhibitor stocks were made at a 1000× fold excess in DMSO, and a dose response test compound dose range of 10,000 to 0.1 nM was used. Each treatment was carried out in triplicate. After 144 hrs of treatment, relative cell viability numbers were determined using the CellTiter-Glo 2.0 assay following the manufacturer's instructions. Test plates and CellTiter-Glo 2.0 reagent were allowed to equilibrate to room temperature. CellTiter-Glo 2.0 reagent was added at 1:1 reagent to media ratio to the 96-well cell plates, plates were placed on a plate shaker for 2 minutes and then incubated at room temperature for a further 10 minutes to allow complete cell lysis to occur. The mix was then transferred to white, 96-well luminometer assay plates (Greiner Bio One #655075). Luminescence was quantified using a CLARIOStar Plus multi-mode plate reader (BMG Labtech) in luminescence detection mode with the recommended settings (ultra-Glo pre-set: emission 545-50 nm with autofocus and enhanced dynamic range on). Relative cell density was expressed as a function of inhibitor concentration, with respect to DMSO-only control wells. Data where plotted using GraphPad Prism and IC50 values for the biological effect were calculated using the EC50 non-linear fit function using a sigmoidal, 4-parameter logistic, least squares fit with no constraints. • b) Cell Titer One (Promega, #G3582). The effect of the TEAD inhibitors disclosed herein on cell proliferation was also determined using the Promega Substrate Cell Titer Aqueous One Solution Reagent. The TEAD inhibitors were evaluated for the effects on cell proliferation responder (H226) and non-responder negative control cancer cell lines (CAMA1, H28), as well as non-transformed normal human cells (HUVEC, NHDF). Dissociated cells were resuspend in media (depending on cell line, either in DMEM, RPMI, or EMEM all with 10% FBS, with gentamicin as an antibiotic). Cells were seeded at 100 μL/well at 750 cells per well in 96-well plates and allowed to settle and attach. After an incubation of 24 hrs (37° C., 5% CO2, humidified incubator), 100 μL of test compound-containing media was added. A dilution series of 2000× concentrated stock of test compounds was prepared in DMSO, for final concentrations from 0.1 to 10,000 nM. After addition of test compound-containing media, cells were incubated for 6 days at 37° C., 5% CO2, humidified incubators). To measure cell density, 20 μL of Promega Substrate Cell Titer 96 Aqueous One Solution Reagent (Promega, #G3582) to each well was added according to the manufacturer's instructions. Plates were incubated at 37° C. for usually 3-8 hrs, to reach in the control cells (without compound) an OD of 1.5 at 490 nm. The OD was measured using Vmax [Molecular Devices] spectrophotometer plate reader. Media only-wells were used as background controls and cell densities normalized to DMSO vehicle control. ECs were taken as the concentration achieving 50% of maximal growth inhibition.

BHY cells = assay: BHY proliferation and cell viability assay (CTG); type: cell-based; conditions: BHY cell line
Method: BHY cells were trypsinised, counted and plated at the specified cell density in 200 μl of growth media in 96 well flat bottom tissue culture treated plates. The plated cells were incubated overnight at 37° C., 5% CO2 before being treated with compounds in triplicate for each assay point. 50 μl of the serially diluted compound was added to each well giving a final DMSO concentration of 0.5% per well and a total volume of 250 μl per well. The treated cells were incubated for 144 hours (6 days) at 37° C., 5% CO2. Following compound treatment, the remaining viable cells were detected using the Promega CellTiter-Glo 2.0 assay as follows: 150 μl of media was removed from each of the wells to be assayed and 100 μl of room temperature CellTiter-Glo 2.0 reagent was added. The plate was placed on an orbital shaker at 500 rpm at room temperature for 2 minutes, and then incubated without shaking for a further 10 minutes at room temperature. 150 μl of cell lysate was removed from each well and dispensed into a single well of a white opaque 96 well plate. Luminescence at 545 nm was read using a BMG CLARIOstar plate reader. The luminescent signal was directly proportional to number of viable cells, the percent of viable cells relative to the DMSO control was then calculated for each assay point. Percent viability relative to DMSO control was plotted against compound concentration and a curve fitted with non-linear regression in GraphPad
Prism software. EC50 and IC50 values are calculated using GraphPad Prism software as follows: For EC50 values, a non-constrained four-parameter logistic curve fit was used (Sigmoidal, 4PL, X is concentration). For Absolute IC50 values the baseline was constrained to Y=0 (Absolute IC50, X is concentration). Area Under the Curve (AUC): Prism computes area-under-the-curve by the trapezoidal method. The analysis sees a fitted curve as simply a series of connected XY points. Prism simply computes the area under the “curve” defined by connecting the points by straight lines. The units of the AUC are the units of the Y axis times units of the X axis.

SMILES: C[C@H](NC(=O)c1cnc2c(C3=CC[C@@H](C(F)(F)F)CC3)cccc2c1)c1ncco1 (single isomer, unassigned) [Compound 20, N-(1-(oxazol-2-yl)ethyl)-8-(4-(trifluoromethyl)cyclohex-1-en-1-yl)quinoline-3-carboxamide]
IC50 (NCI-H226 cells): < 200 nM
EC50 (BHY cells; 144 h): < 200 nM

SMILES: C[C@H](NC(=O)c1cnc2c(C3=CCC(C(F)(F)F)CC3)cccc2c1)c1ccccn1 (stereo partly drawn) [Compound 2, N—((S)-1-(pyridin-2-yl)ethyl)-8-(4-(trifluoromethyl)cyclohex-1-en-1-yl)quinoline-3-carboxamide]
IC50 (NCI-H226 cells; Homo sapiens, NCI-H226, 144 h): < 200 nM

SMILES: O=C(NCc1ncco1)c1cnc2c(C3=CCC(C(F)(F)F)CC3)cccc2c1 (stereo not drawn) [Compound 11, N-(oxazol-2-ylmethyl)-8-(4-(trifluoromethyl)cyclohex-1-en-1-yl)quinoline-3-carboxamide]
IC50 (NCI-H226 cells; Homo sapiens, NCI-H226, 144 h): < 200 nM
EC50 (NCI-H226 cells; Homo sapiens): < 200 nM

SMILES: COc1cc(C2=CCC(C(F)(F)F)CC2)c2ncc(C(=O)N[C@H](C)c3ncco3)cc2c1 (stereo partly drawn) [Compound 109, 6-methoxy-N—((R)-1-(oxazol-2-yl)ethyl)-8-(4-(trifluoromethyl)cyclohex-1-en-1-yl)quinoline-3-carboxamide]
EC50 (NCI-H226 cells; Homo sapiens): < 200 nM
EC50 (BHY cells; 144 h): < 200 nM

SMILES: COc1cc(C2=CCC(C(F)(F)F)CC2)c2ncc(C(=O)N[C@H](C)CO)cc2c1 (stereo partly drawn) [Compound 110, N—((R)-1-hydroxypropan-2-yl)-6-methoxy-8-(4-(trifluoromethyl)cyclohex-1-en-1-yl)quinoline-3-carboxamide]
EC50 (NCI-H226 cells; Homo sapiens): < 200 nM

SMILES: C[C@H](CO)NC(=O)c1cnc2c(C3=CCC4(CC3)CC(F)(F)C4)cccc2c1 [Compound 165, (R)-8-(2,2-difluorospiro[3.5]non-6-en-7-yl)-N-(1-hydroxypropan-2-yl)quinoline-3-carboxamide]
EC50 (NCI-H226 cells; Homo sapiens): < 200 nM

The next lines start with results.

IC50 (NCI-H226 cells; Homo sapiens, NCI-H226, 144 h): < 200 nM
EC50 (NCI-H226 cells; Homo sapiens): < 200 nM
SMILES: C[C@H](NC(=O)c1cnc2c(C3=CC[C@@H](C(F)(F)F)CC3)cccc2c1)c1ncco1 (single isomer, unassigned) [Compound 19, N-(1-(oxazol-2-yl)ethyl)-8-(4-(trifluoromethyl)cyclohex-1-en-1-yl)quinoline-3-carboxamide]
EC50 (BHY cells; 144 hours): < 200 nM

EC50 (NCI-H226 cells; Homo sapiens): < 200 nM
SMILES: FC(F)(F)c1ccc(CN2CCC(C3CC(Br)=NO3)CC2)cc1 (stereo not drawn) [Compound 1-2, reference compound]
EC50 (BHY cells; 144 h): > 1000 nM

EC50 (NCI-H226 cells; Homo sapiens): < 200 nM
SMILES: C=CC(=O)Nc1ccc(C)c(Oc2ccc(Cl)cc2)c1 [Compound 1-3, reference compound]
EC50 (BHY cells; 144 h): < 200 nM

IC50 (NCI-H226 cells; Homo sapiens, NCI-H226, 144 h): < 200 nM
EC50 (NCI-H226 cells; Homo sapiens): < 200 nM
SMILES: C[C@H](CO)NC(=O)c1cnc2c(C3=CCC(C(F)(F)F)CC3)cccc2c1 (stereo partly drawn) [Compound 7, N—((R)-1-hydroxypropan-2-yl)-8-(4-(trifluoromethyl)cyclohex-1-en-1-yl)quinoline-3-carboxamide]
EC50 (BHY cells; 144 h): < 200 nM

EC50 (NCI-H226 cells; Homo sapiens): < 200 nM
SMILES: O=C(NCc1ccn[nH]1)c1cnc2c(C3=CCC(C(F)(F)F)CC3)cccc2c1 (stereo not drawn) [Compound 47, N-((1H-pyrazol-5-yl)methyl)-8-(4-(trifluoromethyl)cyclohex-1-en-1-yl)quinoline-3-carboxamide]
EC50 (BHY cells; 144 h): < 200 nM

EC50 (NCI-H226 cells; Homo sapiens): < 200 nM
SMILES: COC[C@H](CO)NC(=O)c1cnc2c(C3=CCC(C(F)(F)F)CC3)cccc2c1 (stereo partly drawn) [Compound 62, N—((S)-1-hydroxy-3-methoxypropan-2-yl)-8-(4-(trifluoromethyl)cyclohex-1-en-1-yl)quinoline-3-carboxamide]
EC50 (BHY cells; 144 h): < 200 nM

EC50 (NCI-H226 cells; Homo sapiens): < 200 nM
SMILES: C[C@@H](NC(=O)c1cnc2c(C3=CCC4(CC3)CC4)cccc2c1)c1ncco1 [Compound 166, (R)—N-(1-(oxazol-2-yl)ethyl)-8-(spiro[2.5]oct-5-en-6-yl)quinoline-3-carboxamide]
